The values below come from US5880134A, “Method for using ergoline compounds to effect physiological and pathological functions at the 5-HT7 receptor” (Eli Lilly and Company, priority 1997, dated 1999).

Data set [1] deals with T1, human 5-HT7 receptor (Homo sapiens, UniProt P34969). As to conditions: cited from earlier work; for pharmacological profile (rank order of affinity): human 5-HT7, [3H]5-HT competition.
The next data set deals with rat 5-HT7 receptor. As to conditions: cited from earlier work; for pharmacological profile (rank order of affinity): rat 5-HT7, [125I]LSD and [3H]5-HT.
The target in data set [2] is T2, 5-HT7 receptor in the dog coronary artery (Canis lupus familiaris, UniProt A0A8I3S709).
T2 construct: The left anterior descending and circumflex coronary arteries were dissected from the hearts; from tissue; host or cells: dog left anterior descending and circumflex coronary artery rings (mongrel dogs), endothelium removed
Briefly: 5-HT-induced relaxation of endothelium-denuded canine coronary artery rings precontracted with PGF2α (Schild / dissociation constant analysis). The class given is cell-based. The settings on record: for relaxant activity in canine coronary artery: agonist; for pEC50 values between vehicle and compound-treated tissues: 1 μM, p<0.05, Student's t-test; for blockade of 5-HT-induced relaxation: compounds III and V 1 μM, compound IV 10-100 nM, 1 hr incubation; for slope of the Schild regression: Schild plot; for slope: Table 2, Schild regression. The protocol:
(§1) Hearts were obtained from mongrel dogs anesthetized with sodium pentobarbital (30 mg/kg, i.v.) and placed in oxygenated modified Krebs' solution of the following composition (millimolar): NaCl, 118; KCl, 4.6; CaCl2, 1.6; KH2 PO4, 1.2; MgSO4 1.2, glucose, 10; NaHCO3 24.8 (pH 7.4). The left anterior descending and circumflex coronary arteries were dissected from the hearts, cleaned of fat and adhering tissue and cut into rings (approximately 2-3 mm outer diameter and 4-5 mm in length). The intimal surface of the rings was gently rubbed with a pair of forceps to remove the endothelium. Tissues were then mounted between two stainless steel hooks and placed in 10 ml organ chambers constantly exposed to oxygenated modified Krebs' solution (95% O2 /5% CO2; pH 7.4; 37° C.). Tissues were equilibrated for 1 hour under an initial optimal passive force of 4 g determined previously from length-tension experiments. The buffer was replaced every 15 minutes during equilibration. Isometric force was measured with Statham UC3 force transducers connected to a Beckman dynograph (R611). After 1 hr equilibration, tissues were depolarized twice with 50 mM KCl for 30 min with a 20 min washing period between. The integrity of the endothelium was examined with acetylcholine (1 μM), bradykinin (100 nM), or the ionophore A23187 (1 μM). Rings that relaxed to these agents were not used in this study.
Cumulative concentration-response curves to 5-HT were generated in tissues incubated with either vehicle or antagonist for 1 hr. In some experiments contraction was measured in tissues under basal tone upon the cumulative addition of 5-HT. These tissues were treated with prazosin (1 μM) to block any potential a adrenoceptor activation and in the absence or presence of antagonist.
(§2) All results are expressed as mean ±S.E. where "n" represents the number of rings examined. No more than two rings were used from each animal for each compound studied. The relaxation data is expressed as percent relaxation of the contraction produced by PGF2α. The contraction data is expressed as percent of a maximal KCl (50 mM) contraction. The EC50 was the concentration of the agonist producing half-maximal response and was determined by least squares linear regression analysis of the linear portion or the agonist concentration-response curve and expressed as -log C50 (pEC50)
Apparent antagonist dissociation constants (KB) were determined for each antagonist according to the following equation: [formula] where (B) is the concentration of the antagonist and dose ratio is the EC50 of the agonist in the presence of the antagonist divided by the EC50 of the agonist in vehicle treated tissues. […] Significant differences between vehicle and antagonist treated tissues were determined with Student's t-test. The alpha value was set a priori at 0.05.
The data was also analyzed in accord with the procedure of Arunlakshana and Schild (1959). The dose ratio was determined at various concentrations of antagonist compound II or compound IV. If blockade is competitive under equilibrium conditions a plot of the logarithm (dose ratio--1) against the negative logarithm of the molar concentration of antagonist should yield a straight line whose slope is not different from unity and whose intercept on the abscissa is the pA2, which is generally considered to be equivalent to -log KB.

Data set [3] has as its system contractile 5-HT receptor in the canine coronary artery. Description: Contraction of endothelium-denuded canine coronary artery under basal tone. The class given is cell-based. The procedure:
as §1
Tissues prepared as described in Example 1 were precontracted with PGF2α (10 μM) which produced a tonic contraction that remained at or above 92.8±2.1% (n=14) of the original maximum force throughout the experiment. Cumulative concentration-response curves to 5-HT were generated in tissues incubated with either vehicle or antagonist for 1 hr. In some experiments contraction was measured in tissues under basal tone upon the cumulative addition of 5-HT. These tissues were treated with prazosin (1 μM) to block any potential a adrenoceptor activation and in the absence or presence of antagonist.
as §2

Data set [4] shares this test system. The settings on record: agonist alone, vessels under basal tone, as previously reported (Cushing et al.); cited from earlier work.
Data set [5] deals with T1, human 5-HT7 receptor. Description: Receptor binding at the human 5-HT7 receptor. The source says:
The general chemical structure for three particularly useful compounds of the invention (compounds III-V) are shown below: [drawing 3]
The KD and --logKB value for compound II, a known 5-HT7 antagonist, and two compounds employed by the present invention, compound III and IV, are shown in Table 1.

The nature of data set [6]: Bioavailability after oral administration in rats. The class given is in vivo, rat.
In another data set the test system is 5-HT7 receptor. As to conditions: expressed in mammalian cells; cited from earlier work.
[7] abbreviates: compared with ester compounds II and V.

Structures are written as SMILES.

T1 sequence (P34969 1-445 isoform P34969-2): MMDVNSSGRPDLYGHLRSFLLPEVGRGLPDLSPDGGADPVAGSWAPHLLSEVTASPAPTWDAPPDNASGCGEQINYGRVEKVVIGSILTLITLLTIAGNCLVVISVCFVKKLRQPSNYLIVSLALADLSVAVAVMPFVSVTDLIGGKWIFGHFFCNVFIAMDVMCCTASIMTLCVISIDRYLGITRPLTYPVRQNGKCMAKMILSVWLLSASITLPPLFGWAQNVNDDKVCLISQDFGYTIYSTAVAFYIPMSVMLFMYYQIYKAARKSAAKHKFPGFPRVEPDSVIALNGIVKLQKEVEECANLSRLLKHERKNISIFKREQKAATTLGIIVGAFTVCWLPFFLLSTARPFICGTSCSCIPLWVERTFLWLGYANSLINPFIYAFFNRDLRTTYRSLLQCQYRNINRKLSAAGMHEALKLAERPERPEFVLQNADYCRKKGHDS
T2 sequence (A0A8I3S709 1-435): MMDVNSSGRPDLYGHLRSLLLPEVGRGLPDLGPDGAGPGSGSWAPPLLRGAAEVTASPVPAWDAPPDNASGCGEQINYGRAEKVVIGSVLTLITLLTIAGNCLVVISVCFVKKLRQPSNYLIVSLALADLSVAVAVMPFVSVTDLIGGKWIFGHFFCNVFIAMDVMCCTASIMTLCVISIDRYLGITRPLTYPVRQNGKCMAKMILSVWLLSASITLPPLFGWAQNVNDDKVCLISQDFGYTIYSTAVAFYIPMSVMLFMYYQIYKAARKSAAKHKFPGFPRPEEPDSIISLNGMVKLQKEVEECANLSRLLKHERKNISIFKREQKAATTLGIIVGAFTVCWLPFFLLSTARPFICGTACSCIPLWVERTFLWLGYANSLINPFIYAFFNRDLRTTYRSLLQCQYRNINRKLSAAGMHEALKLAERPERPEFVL

On to `CCCN(CCC)C1CCc2cccc(O)c2C1` (stereo not shown) [8-OH DPAT, 8-hydroxy-2-(di-n-propyl-amino)-tetralin], for which the “pharmacological profile (rank order of affinity)” value (“pharmacological profile” for short) is 5CT>5 MeOT≥5HT>8-OH DPAT on human 5-HT7 receptor [1] and 5CT>5MeOT≥5HT>8-OH-DPAT in the data set with rat 5-HT7 receptor.

For the compound `NCCc1c[nH]c2ccc(C(N)=O)cc12` [Compound 5-CT, 5-carboxamidotryptamine], the “relaxant activity in canine coronary artery” value in data set [2] was “potent relaxant agonist”. The results for the “affinity of canine coronary artery relaxant receptor for 5CT versus serotonin” value in data set [2] and in data set [2] (listed as 5CT) were “highest affinity for 5-HT7 receptors” and “greater affinity for 5CT than for the endogenous agonist serotonin”, respectively. Further, in data set [3] (agonist alone, under basal tone or precontracted), the contraction by agonist result was “did not significantly contract coronary arteries”. Also, in data set [3] (compound IV 1 μM, basal tone), the “contraction by agonist in the presence of compound IV” value is “concentration-dependently contracted canine coronary artery”. Moreover, the “pharmacological profile” value was 5CT>5 MeOT≥5HT>8-OH DPAT on human 5-HT7 receptor [1] and 5CT>5MeOT≥5HT>8-OH-DPAT in the data set on rat 5-HT7 receptor. Further, the “affinity of 5CT over serotonin” value at human 5-HT7 receptor [1] (human 5-HT7) is “greater affinity of 5CT over serotonin”. Also, in the data set with rat 5-HT7 receptor (rat 5-HT7), the “binding affinity of 5CT over serotonin” value is recorded as “higher binding affinity of 5CT over serotonin”.

`NCCc1c[nH]c2ccc(O)cc12` [Compound 5-HT, 5-hydroxytryptamine]: the “contractile response of agonist” value in data set [4] is on record as “produced a biphasic contractile response”. In addition, the “pharmacological profile” value is recorded as 5CT>5 MeOT≥5HT>8-OH DPAT at human 5-HT7 receptor [1] and 5CT>5MeOT≥5HT>8-OH-DPAT with rat 5-HT7 receptor.

Turning to `COc1ccc2[nH]cc(CCN)c2c1` [Compound 5-MeOT, 5-methoxytryptamine], the “contractile response of agonist” value in data set [4] is reported as “produced a biphasic contractile response”. The “pharmacological profile” value at human 5-HT7 receptor [1] is listed as 5CT>5 MeOT≥5HT>8-OH DPAT; in the data set with rat 5-HT7 receptor it was 5CT>5MeOT≥5HT>8-OH-DPAT.

For the compound `CC(C)n1cc2c3c(cccc31)C1CC(C(=O)NC3CCCCC3)CN(C)C1C2` (stereo not shown) [Compound III], at human 5-HT7 receptor [5], the “binding affinity to the human 5-HT7 receptor (in words)” value is on record as “high binding affinity”. In addition, in data set [2], the Kb was 200 nM; the “pEC50 values between vehicle and compound-treated tissues” value is “significantly different”. Further, the “blockade of 5-HT-induced relaxation” value in data set [2] (compound II 0.3-10 μM) is “blocked 5-HT-induced relaxation in endothelium-denuded canine coronary artery rings in a competitive manner”. In addition, the bioavailability entry in data set [6] (setting [7]) was “greater bioavailability than the ester compounds II and V”.

For `CC(O)C(C)OC(=O)C1CC2c3cccc4c3c(cn4C(C)C)CC2N(C)C1` (stereo not shown) [Compound II], in data set [2], the Kb was 316 nM, the “slope of the Schild regression” value amounted to 0.92 and the slope is 0.92. The “Schild slope versus unity” value in data set [2] (FIG. 1 lower panel) is listed as “not significantly different from unity”. Also, in data set [2] (compound II 0.3-10 μM), the “maximum relaxant response to 5-HT” value is reported as “did not alter the maximum relaxant response” and the “blockade of 5-HT-induced relaxation” value is recorded as “shifted the concentration-response curve to 5-HT significantly to the right”.

As for `CC(C)n1cc2c3c(cccc31)C1CC(C(=O)NC3CCCC3O)CN(C)C1C2` (stereo not shown) [Compound IV], at human 5-HT7 receptor [5], the “binding affinity to the human 5-HT7 receptor (in words)” value is recorded as “high binding affinity”. In data set [2], the Kb was 5.01 nM, the “slope of the Schild regression” value is listed as 0.98 and the slope was found to be 0.98. In data set [2] (compound II 0.3-10 μM), the “blockade of 5-HT-induced relaxation” value is “blocked 5-HT-induced relaxation in endothelium-denuded canine coronary artery rings in a competitive manner”. In data set [3] (1 μM, basal tone), the “effect on contractile response produced by 5-HT and 5-MeOT” value is listed as “not affecting the contractile response”; the “effect on relaxant phase of 5-HT and 5-MeOT response” value is recorded as “significantly attenuated the relaxant phase”. In addition, the “effect on sumatriptan-induced contraction” value in data set [3] (1 μM, basal tone, FIG. 7) is given as “did not significantly affect sumatriptan-induced contraction”. Besides, the bioavailability entry in data set [6] (setting [7]) is “greater bioavailability than the ester compounds II and V”.

For `COC1CCC(OC(=O)C2CC3c4cccc5c4c(cn5C(C)C)CC3N(C)C2)CC1` (stereo not shown) [Compound V], in data set [2], the Kb is 398 nM; the “pEC50 values between vehicle and compound-treated tissues” value was “significantly different”. Besides, in data set [2] (compound II 0.3-10 μM), the “blockade of 5-HT-induced relaxation” value is given as “blocked 5-HT-induced relaxation in an apparently competitive manner”. Moreover, the bioavailability entry in data set [6] (compared with compound II) was “higher bioavailability than compound II”.

Regarding `CCCCC[C@H](O)/C=C/[C@@H]1[C@@H](C/C=C\CCCC(=O)O)[C@@H](O)C[C@H]1O` [PGF2α], the “contraction retained throughout the experiment” value in data set [2] (PGF2α 10 μM, of the original maximum force, n=14) is ≥ 92.8±2.1%.

For `CN(C)CCC=C1c2ccccc2CCc2ccccc21` [amitriptyline], the “affinity for the 5-HT7 receptor” value in the data set with 5-HT7 receptor was “high affinity”.

With `CN1CCN(C2=Nc3cc(Cl)ccc3Nc3ccccc32)CC1` [clozapine], in the data set on 5-HT7 receptor, the “affinity for the 5-HT7 receptor” value is recorded as “high affinity”.

As to `CN1CCN(C2=Nc3ccccc3Oc3ccc(Cl)cc32)CC1` [loxapine], in the data set with 5-HT7 receptor, the “affinity for the 5-HT7 receptor” value is “high affinity”.

Take `CNS(=O)(=O)Cc1ccc2[nH]cc(CCN(C)C)c2c1` [sumatriptan]: the “relaxant activity in canine coronary artery” value in data set [2] is “lacking relaxant activity”.
